Assay: Fragrance Release Half-life (hydrolysis kinetics of pro-accord monitored by HPLC)
Type: physicochemical
Conditions: 90/10 dioxane/phosphate buffered water, buffer pH approximately 2.5, HPLC at 30° C.
Description: For the purposes of the present invention the pro-accords generally have a "Fragrance Release Half-life" of less than or equal to 12 hours when measured in NaH2 PO4 buffer at pH 2.5 and greater than or equal to 0.1 hour when measured in NaH2 PO4 buffer at pH 5.3. The "Fragrance Release Half-life" is defined herein as follows.
The rate at which the accord is released is defined by the formula: […]
and can be further expressed by the formula: [formula] wherein k is the release rate constant and [Pro-accord] is the concentration of pro-accord. For the purposes of the present invention the "Fragrance Release Half-life", t1/2, is related to the release rate constant by the formula: [formula] and this relationship is used for the purposes of the present invention to determine the "fragrance Release Half-life" (FRHL).
Due to the hydrophobic nature of some pro-accords, it is necessary to conduct the determination of t1/2 and k in a mixture of 90/10 dioxane/phosphate buffered water. […] Next 10 mL of the phosphate buffer is admixed with 90 mL of dioxane and the pro-fragrance to be analyzed is added. The hydrolysis kinetics are then monitored by conventional HPLC at 30° C. […]
*t1/2 for the purposes of the present invention is measured in […]

| t1/2 (Fragrance Release Half-life) [h] | Compound |
| --- | --- |
| 5.9 | c1ccc(CCOC(OCCc2ccccc2)OCCc2ccccc2)cc1 [tris(phenylethyl) orthoformate, Tris(phenylethyl) Orthoformate] |
| 4.8 | c1ccc(CCOC(OCCc2ccccc2)(OCCc2ccccc2)OCCc2ccccc2)cc1 [tetrakis(phenylethyl) orthocarbonate, Tetrakis(phenylethyl) Orthocarbonate] |

From patent US6114302A, “Fragrance pro-accords” (The Procter & Gamble Company, priority 1999, dated 2000)
